Assay results published in patent US6514997B2, “Antipicornaviral compounds and compositions, their pharmaceutical uses, and materials for their synthesis” (Agouron Pharmaceuticals, Inc., priority 1999, dated 2003).
Like-named read-outs stand apart in the source and are kept apart here.

Experiments:
[1] = tested on: strains of human rhinovirus (HRV); assay: Antirhinoviral H1-HeLa cell culture assay (XTT cell protection, EC50), other HRV strains; assay type: cell-based, human rhinovirus in H1-HeLa cells; details: read-out: EC50
Procedure: (§1) Antirhinoviral H1-HeLa Cell Culture Assay:
(§2) In this cell protection assay, the ability of compounds to protect cells against HRV infection was measured by the XTT dye reduction method, which is described in Weislow et al., J. Natl. Cancer Inst. (1989), vol. 81, 577-586. H1-HeLa cells were infected with HRV-14 at a multiplicity of infection (m.o.i.) of 0.13 (virus particles/cell) or mock-infected with medium only. Infected or mock-infected cells were resuspended at 8×10^5 cells per mL, and incubated with appropriate concentrations of the compounds to be tested. Two days later, XTT/PMS was added to test plates and the amount of formazan produced was quantified spectrophotometrically at 450/650 nm. […] The therapeutic index (TI) was calculated by dividing the CC50 value by the EC50 value.
(§3) All strains of human rhinovirus (HRV) for use in this assay were purchased from American Type Culture Collection (ATCC), except for HRV serotype-14 (produced from the infectious cDNA clone constructed by Dr. Robert Rueckert, Institute for Molecular Virology, University of Wisconsin, Madison, Wis.). HRV stocks were propagated and viral assays were performed in H1-HeLa cells (ATCC). Cells were grown in minimal essential medium with 10% fetal bovine serum, available from Life Technologies (Gaithersburg, Md.).

[2] = tested on: HRV-14; assay: Antirhinoviral H1-HeLa cell culture assay (XTT cell protection, EC50), HRV-14; assay type: cell-based, human rhinovirus (HRV) serotype-14 in H1-HeLa cells
Procedure: as §1
as §2, with “(1989), vol. 81, 577-586.” left out
as §3

[3] = tested on: H1-HeLa cells; assay: Cytotoxicity (CC50) in mock-infected H1-HeLa cells, XTT dye reduction; assay type: cell-based, human
Procedure: as §2, with “(1989), vol. 81, 577-586.” left out
as §3
(§4) Coxsackievirus types A-21 (CAV-21) and B3 (CVB3) were purchased from American Type Culture Collection (ATCC, Rockville, Md.). Virus stocks were propagated and antiviral assays were performed in H1-HeLa cells (ATCC). Cells were grown in minimal essential medium with 10% fetal bovine serum (Life Technologies, Gaithersburg, Md.). The ability of the compounds of this invention to protect cells against either CAV-21 or CVB3 infection was measured by the XTT dye reduction method. This method is described in Weislow et al., J. Natl. Cancer Inst. […] H1-HeLa cells were infected with CAV-21 or CVB3 at a multiplicity of infection (m.o.i.) of 0.025 or 0.075, respectively, or mock-infected with medium only. H1-HeLa cells were plated at 4×10^4 cells per well in a 96-well plate and incubated with appropriate concentrations of the test compound. One day (CVB3) or two days (CAV-21) later, XTT/PMS was added to test plates and the amount of formazan produced was quantified spectrophotometrically at 450/650 nm. […] The therapeutic index (TI) was calculated by dividing the CC50 by the EC50.

[4] = molecular target: T1, Recombinant rhinovirus 3C protease, serotype 14 (Human rhinovirus 14, UniProt P03303); assay: Inhibition of rhinovirus 3C protease (FRET assay, kobs/[I]), serotype 14; assay type: biochemical; details: for kinact/KI: pH 7.6, read-out: kobs/[I] (3C protease inhibition activity)
T1 construct: Recombinant rhinovirus 3C proteases; made in house
Procedure: Inhibition of Rhinovirus 3C Protease:
Stock solutions (50 mM, in DMSO) of various compounds were prepared; dilutions were in the same solvent. Recombinant rhinovirus 3C proteases (see Birch et al., “Purification of recombinant human rhinovirus 14 3C protease expressed in Escherichia coli,” Protein Expr. Pur. (1995), vol. 6(5), 609-618) from serotypes 14, 16, and 2 were prepared by the following standard chromatographic procedures: (1) ion exchange using Q Sepharose Fast Flow from Pharmacia; (2) affinity chromatography using Affi-Gel Blue from Biorad; and (3) sizing using Sephadex G-100 from Pharmacia. Each assay sample contained 2% DMSO, 50 mM tris pH 7.6, 1 mM EDTA, a test compound at the indicated concentration, approximately 1 μM substrate, and 50-100 nM protease. The kobs/I values were obtained from reactions initiated by addition of enzyme rather than substrate. RVP activity was measured in the fluorescence resonance energy transfer assay. The substrate was (N-terminal) DABCYL-([…]-EDANS. In the uncleaved peptide, the EDANS fluorescence was quenched by the proximal DABCYL moiety. When the peptide was cleaved, the quenching was relieved, and activity was measured as an increase in fluorescence signal. The tabulated data in the column designated kobs/[I] were measured from progress curves in enzyme start experiments.

[5] = Cytotoxicity (CC50) in mock-infected H1-HeLa cells, XTT dye reduction; assay type: cell-based, human; details: human, H1-HeLa cells, mock-infected; line of HRV-14
Procedure: as §2, with “(1989), vol. 81, 577-586.” left out
as §3, §4

T1 sequence (P03303 1538-1719): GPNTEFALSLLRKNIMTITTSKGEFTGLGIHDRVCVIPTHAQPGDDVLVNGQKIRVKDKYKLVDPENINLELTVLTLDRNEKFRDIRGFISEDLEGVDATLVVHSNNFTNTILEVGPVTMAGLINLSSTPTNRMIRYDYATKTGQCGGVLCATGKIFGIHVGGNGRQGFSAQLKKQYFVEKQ

Q: For `C#CC[C@@H](C(=O)N[C@H](/C=C/C(=O)OCC(C)(C)C)C[C@@H]1CCNC1=O)n1cccc(NC(=O)c2cc(C)on2)c1=O` (relative stereo) [Compound 32, trans-(2′S,3″″S,4S)-4-(2′-{3″-[(5′″-Methylisoxazole-3′″-carbonyl)amino]-2″-oxo-2″H-pyridin-1″-yl}-pent-4′-ynoylamino)-5-(2″″-oxopyrrolidin-3″″-yl)pent-2-enoic acid 2,2-Dimethylpropyl Ester], which EC50 ([1]; HRV-1A) is on record?
A: 0.179 µM

Q: What about the EC50 ([1]; HRV-2) of the same compound?
A: 0.105 µM

Q: And the EC50 ([1]; HRV-3)?
A: 0.059 µM

Q: And the EC50 ([1]; HRV-9)?
A: 0.5 µM

Q: What about the EC50 ([1]; HRV-10) of the same compound?
A: 0.156 µM

Q: What about the EC50 ([1]; HRV-16) of the same compound?
A: 0.184 µM

Q: And the EC50 ([1]; HRV-25)?
A: 0.547 µM

Q: And the EC50 ([1]; HRV-39)?
A: 0.41 µM

Q: And the EC50 ([1]; HRV-87)?
A: 0.033 µM

Q: And the EC50 ([2]; HRV-14, read-out: EC50)?
A: 0.126 µM

Q: And the CC50 ([3]; line of HRV-1A)?
A: > 10 µM

Q: And the CC50 ([3]; line of HRV-2)?
A: > 10 µM

Q: What about the CC50 ([3]; line of HRV-3) of the same compound?
A: > 10 µM

Q: And the CC50 ([3]; line of HRV-9)?
A: > 10 µM

Q: What about the CC50 ([3]; line of HRV-10) of the same compound?
A: > 10 µM

Q: What about the CC50 ([3]; line of HRV-14) of the same compound?
A: > 10 µM

Q: What about the CC50 ([3]; line of HRV-16) of the same compound?
A: > 10 µM

Q: What about the CC50 ([3]; line of HRV-25) of the same compound?
A: > 10 µM

Q: And the CC50 ([3]; line of HRV-39)?
A: > 10 µM

Q: What about the CC50 ([3]; line of HRV-87) of the same compound?
A: > 10 µM

Q: And the “kobs/[I] (3C protease inhibition activity)” value ([4]; HRV-14)?
A: 127,500 M^−1s^−1

Q: Which EC50 ([1]; HRV-2) does the source give for `CCC(C(=O)N[C@H](/C=C/C(=O)OCC(C)(C)C)C[C@@H]1CCNC1=O)n1cccc(NC(=O)c2cc(C)on2)c1=O` (relative stereo) [Compound 42, trans-(2′S,3′″″S,4S)-4-[2′-(3″-{[1′″-(5″″-Methylisoxazol-3″″-yl)methanoyl]amino}-2′″-oxo-2′″H-pyridin-1′″-yl)butanoylamino]-5-(2′″″-oxopyrrolidin-3′″″-yl)pent-2-enoic Acid 2,2-Dimethylpropyl Ester] here?
A: 0.161 µM

Q: And the EC50 ([1]; HRV-3)?
A: 0.152 µM

Q: What about the EC50 ([1]; HRV-9) of the same compound?
A: 0.521 µM

Q: What about the EC50 ([1]; HRV-16) of the same compound?
A: 0.402 µM

Q: And the EC50 ([1]; HRV-25)?
A: 0.611 µM

Q: What about the EC50 ([1]; HRV-39) of the same compound?
A: 0.158 µM

Q: What about the EC50 ([2]; HRV-14, read-out: EC50) of the same compound?
A: 0.168 µM

Q: What about the CC50 ([3]; line of HRV-2) of the same compound?
A: > 10 µM

Q: What about the CC50 ([3]; line of HRV-3) of the same compound?
A: > 10 µM

Q: What about the CC50 ([3]; line of HRV-9) of the same compound?
A: > 10 µM

Q: What about the CC50 ([3]; line of HRV-14) of the same compound?
A: > 10 µM

Q: And the CC50 ([3]; line of HRV-16)?
A: > 10 µM

Q: And the CC50 ([3]; line of HRV-25)?
A: > 10 µM

Q: What about the CC50 ([3]; line of HRV-39) of the same compound?
A: > 10 µM

Q: What about the “kobs/[I] (3C protease inhibition activity)” value ([4]; HRV-14) of the same compound?
A: 38,200 M^−1s^−1

Q: Which kinact/KI ([4]; HRV-14) does the source give for `CCOC(=O)/C=C/[C@H](C[C@@H]1CCNC1=O)NC(=O)[C@@H](Cc1ccccc1)n1ccc2cc[nH]c2c1=O` [Compound 4] here?
A: 574 M⁻¹ s⁻¹

Q: For `CCOC(=O)/C=C/[C@H](CCC(N)=O)NC(=O)[C@H](Cc1ccc(F)cc1)n1cccc(NC(=O)C(F)(F)F)c1=O` [Compound 24, trans-(2′S,4S)-6-Carbamoyl-4-{3′-(4″-fluorophenyl)-2′-[2′″-oxo-3′″-(2″″,2″″,2″″-trifluoroacetylamino)-2′″H-pyridin-1′″-yl]propionylamino}hex-2-enoic Acid Ethyl Ester], which kinact/KI ([4]; HRV-14) is on record?
A: 8800 M⁻¹ s⁻¹

Q: Which EC50 ([2]; Rhinovirus B, HRV14, H1-HeLa, HRV-14, read-out: EC50) does the source give for `Cc1cc(C(=O)Nc2ccc3n(c2=O)[C@H](C(=O)N[C@H](/C=C2\CCOC2=O)C[C@@H]2CCNC2=O)CC3)no1` [Compound 38, trans-(2″S,3S,3′″S)-6-[(5′-Methylisoxazole-3′-carbonyl)amino]-5-oxo-1,2,3,5-tetrahydroindolizine-3-carboxylic Acid [2″-(2′″-oxodihydrofuran-3′″-ylidene)-1″-(2″″-oxopyrrolidin-3″″-ylmethyl)ethyl]amide] here?
A: 16.8 µM

Q: And the CC50 at 2 days [5]?
A: > 100 µM

Q: For `CCOC(=O)/C=C/[C@H](C[C@@H]1CCNC1=O)NC(=O)[C@H](Cc1ccccc1)N1CCc2c(C)c[nH]c2C1=O` [Compound 45, 4S-[2S-(3-Methyl-7-oxo-1,4,5,7-tetrahydro-pyrrolo[2,3-c]pyridin-6-yl)3-phenyl-propionylamino]-5-(2-oxo-pyrrolidin-3-yl)pent-2(trans)-enoic acid ethyl ester], which kinact/KI ([4]; HRV-14) is on record?
A: 673 M⁻¹ s⁻¹

Q: With `Cc1cc(C(=O)Nc2cccn([C@@H](Cc3ccc(F)c(F)c3)C(=O)N[C@H](/C=C/C(=O)O)C[C@@H]3CCNC3=O)c2=O)no1` [Compound 51, trans-(2′S,3″″″S,4S)-4-[3′-(3″,4″-Difluorophenyl)-2′-(3′″-{[1″″-(5′″″-methylisoxazol-3′″″-yl)methanoyl]amino}-2″″-oxo-2″″H-pyridin-1″″-yl)propanoylamino]-5-(2″″″-oxopyrrolidin-3″″″-yl)pent-2-enoic Acid] as the compound, how does the EC50 ([1]; Human rhinovirus sp., HRV9, H1-HeLa, HRV-9) read?
A: > 1 µM

Q: And the EC50 ([1]; Human rhinovirus sp., HRV16, H1-HeLa, HRV-16)?
A: > 10 µM

Q: And the EC50 ([1]; Human rhinovirus sp., HRV25, H1-HeLa, HRV-25)?
A: > 10 µM

Q: What about the EC50 ([2]; Rhinovirus B, HRV14, H1-HeLa) of the same compound?
A: > 10 µM

Q: What about the CC50 at 2 days [5] of the same compound?
A: > 10 µM

Q: What about the CC50 ([3]; line of HRV-9) of the same compound?
A: > 10 µM

Q: And the CC50 ([3]; line of HRV-16)?
A: > 10 µM

Q: And the CC50 ([3]; line of HRV-25)?
A: > 10 µM

Q: With `CC[C@@H](C(=O)N[C@H](/C=C/C(=O)OC1CCCCCC1)C[C@@H]1CCNC1=O)n1cccc(NC(=O)c2cc(C)on2)c1=O` [Compound 61, trans-(2′S,3′″″S,4S)-4-[2′-(3″-{[1′″-(5″″-Methylisoxazol-3″″-yl)methanoyl]amino}-2′″oxo-2′″H-pyridin-1′″-yl)butanoylamino]-5-(2′″″-oxopyrrolidin-3′″″-yl)pent-2-enoic Acid Cycloheptyl Ester] as the compound, how does the kinact/KI ([4]; HRV-14 3C protease) read?
A: 15000 M⁻¹ s⁻¹

Q: With `CCOC(=O)/C=C/[C@H](C[C@@H]1CCNC1=O)NC(=O)[C@H](CC)n1cc(C(F)(F)F)cc(NC(=O)c2cc(C)on2)c1=O` [Compound 68, trans-(2′S,3″″S,4S)-4-[2′-({[1″-(5′″-Methylisoxazol-3′″-yl)methanoyl]amino}-oxotrifluoromethyl-2″H-pyridin-1″-yl)butanoylamino]-5-(2″″-oxopyrrolidin-3″″-yl)pent-2-enoic Acid Ethyl Ester] as the compound, how does the kinact/KI ([4]; HRV-14 3C protease) read?
A: 39500 M⁻¹ s⁻¹

Q: With `Cc1cc(CCCCCCCOc2ccc(C3=NCCO3)cc2)on1` [WIN 51711, reference compound] as the compound, how does the EC50 ([2]; HRV-14, read-out: EC50) read?
A: 0.78 µM

Q: What about the CC50 ([3]; HRV-14) of the same compound?
A: > 60 µM

Q: What does the source list for `Cc1cc(CCCCCCCOc2ccc(C3=N[C@@H](C)CO3)cc2)on1` [WIN 52084, reference compound]?
A: EC50 ([2]; HRV-14, read-out: EC50): 0.07 µM; CC50 ([3]; HRV-14): > 10 µM
